Data reported in patent US8247211B2, “Glycopeptide antibiotics” (American Cyanamid Company, priority 2001, dated 2012).
≈ marks a conversion by molar mass, not a printed value.

Assays:
Assay in all cases: In vitro antibacterial evaluation: minimum inhibitory concentration (MIC), broth dilution method
Type in all cases: cell-based
Escherichia coli [1] = test system: Escherichia coli
Escherichia coli [2] = test system: Escherichia coli; remark: listed apart in the source
How it was run: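 First, organisms are seeded at 5×10^5 CFU/mL into Muller-Hinton II […]. Next, antibiotic is applied across 64-0.06 μg/mL by broth dilution (NCCLS M7-A2). Finally, the lowest inhibitory concentration is recorded as MIC.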

Enterococcus sp. = test system: Enterococcus sp.
How it was run: (§1)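 An MIC is reported for each organism as the least concentration giving inhibition, using broth dilution over 64-0.06 μg/mL with a 5×10^5 CFU/mL inoculum.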

Staphylococcus sp. = details: 18 hours at 35° C.
How it was run: as §1

Streptococcus sp. = details: 18 hours at 35° C.
How it was run: as §1

[3] = Enterococcus faecalis (ATCC 29212)
[4] = Enterococcus faecalis (GC 2242), 18 hours at 35° C.
[5] = Enterococcus faecalis (GC 4552), 18 hours at 35° C.
[6] = Enterococcus faecalis (GC 4553)
[7] = Enterococcus faecalis (GC 4554)
[8] = Staphylococcus aureus (ATCC 29213)
[9] = Staphylococcus aureus (GC 1131)
[10] = Staphylococcus aureus (GC 4541)
[11] = Staphylococcus aureus (GC 4542)
[12] = Staphylococcus aureus (GC 4544)
[13] = Staphylococcus aureus (GC 4545)
[14] = Streptococcus agalactiae (GC 4564)

Molecule: β-O-[(N-Methyl-2-methylpropylamino)carbonyl]-cyclo[glycyl-β-methylphenylalanyl-O-(4-O-hexopyranosylhexopyranosyl)tyrosyl-3-(2-iminoimidazolidin-4-yl)seryl-3-(3-hexopyranosyl-2-iminoimidazolidin-4-yl)serylseryl] [Example 255a]
- MIC Escherichia coli (ATCC 25922) (Escherichia coli [1]): >0.5 µg/mL
- MIC Escherichia coli (GC 4559) (Escherichia coli [2]): >0.5 µg/mL
- MIC Escherichia coli (GC 4560) (Escherichia coli [2]): 0.5 µg/mL
- MIC Enterococcus avium (GC 4558) (Enterococcus sp.; Enterococcus avium (GC 4558)): >0.5 µg/mL
- MIC Enterococcus faecalis (ATCC 29212) (Enterococcus sp.; [3]): >0.5 µg/mL
- MIC Enterococcus faecalis (GC 2242) (Enterococcus sp.; [4]): >0.5 µg/mL
- MIC Enterococcus faecalis (GC 2691) (Enterococcus sp.; Enterococcus faecalis (GC 2691), 18 hours at 35° C.): >0.5 µg/mL
- MIC Enterococcus faecalis (GC 3059) (Enterococcus sp.; Enterococcus faecalis (GC 3059), 18 hours at 35° C.): >0.5 µg/mL
- MIC Enterococcus faecalis (GC 4552) (Enterococcus sp.; [5]): >0.5 µg/mL
- MIC Enterococcus faecalis (GC 4553) (Enterococcus sp.; [6]): >0.5 µg/mL
- MIC Enterococcus faecalis (GC 4554) (Enterococcus sp.; [7]): >0.5 µg/mL
- MIC Enterococcus faecalis (GC 6189) (Enterococcus sp.; Enterococcus faecalis (GC 6189)): >0.5 µg/mL
- MIC Enterococcus faecium (GC 2243) (Enterococcus sp.; Enterococcus faecium (GC 2243)): >64 µg/mL
- MIC Enterococcus faecium (GC 4556) (Enterococcus sp.; Enterococcus faecium (GC 4556)): >64 µg/mL
- MIC Enterococcus faecium (GC 4557) (Enterococcus sp.; Enterococcus faecium (GC 4557)): 32 µg/mL
- MIC Enterococcus faecalis (ATCC 29212) (Enterococcus sp.; broth dilution, 18 hours at 35° C., strain ATCC 29212): >0.5 µg/mL
- MIC Enterococcus faecalis (GC 2242) (Enterococcus sp.; broth dilution, 18 hours at 35° C., strain GC 2242): >0.5 µg/mL
- MIC Enterococcus faecium (GC 2243) (Enterococcus sp.; broth dilution, 18 hours at 35° C., strain GC 2243): >64 µg/mL
- MIC Enterococcus faecalis (GC 2691) (Enterococcus sp.; broth dilution, 18 hours at 35° C., strain GC 2691): >0.5 µg/mL
- MIC Enterococcus faecalis (GC 3059) (Enterococcus sp.; broth dilution, 18 hours at 35° C., strain GC 3059): >0.5 µg/mL
- MIC Enterococcus faecalis (GC 4552) (Enterococcus sp.; broth dilution, 18 hours at 35° C., strain GC 4552): >0.5 µg/mL
- MIC Enterococcus faecalis (GC 4553) (Enterococcus sp.; broth dilution, 18 hours at 35° C., strain GC 4553): >0.5 µg/mL
- MIC Enterococcus faecalis (GC 4554) (Enterococcus sp.; broth dilution, 18 hours at 35° C., strain GC 4554): >0.5 µg/mL
- MIC Enterococcus faecium (GC 4556) (Enterococcus sp.; broth dilution, 18 hours at 35° C., strain GC 4556): >64 µg/mL
- MIC Enterococcus faecium (GC 4557) (Enterococcus sp.; broth dilution, 18 hours at 35° C., strain GC 4557): 32 µg/mL
- MIC Enterococcus avium (GC 4558) (Enterococcus sp.; broth dilution, 18 hours at 35° C., strain GC 4558): >0.5 µg/mL
- MIC Enterococcus faecalis (GC 6189) (Enterococcus sp.; broth dilution, 18 hours at 35° C., strain GC 6189): >0.5 µg/mL
- MIC Coagulase Negative Staphylococcus (GC 4547) (Staphylococcus sp.): 64 µg/mL
- MIC Coagulase Negative Staphylococcus (GC 4548) (Staphylococcus sp.): >64 µg/mL
- MIC Coagulase Negative Staphylococcus (GC 4549) (Staphylococcus sp.): 64 µg/mL
- MIC Coagulase Negative Staphylococcus (GC 4551) (Staphylococcus sp.): >64 µg/mL
- MIC Coagulase Negative Staphylococcus (GC 6257) (Staphylococcus sp.; Coagulase Negative Staphylococcus (GC 6257)): 64 µg/mL
- MIC Staphylococcus aureus (ATCC 29213) (Staphylococcus sp.; [8]): >0.5 µg/mL
- MIC Staphylococcus aureus (GC 1131) (Staphylococcus sp.; [9]): >0.5 µg/mL
- MIC Staphylococcus aureus (GC 3051) (Staphylococcus sp.; Staphylococcus aureus (GC 3051)): 0.5 µg/mL
- MIC Staphylococcus aureus (GC 3053) (Staphylococcus sp.; Staphylococcus aureus (GC 3053)): 0.5 µg/mL
- MIC Staphylococcus aureus (GC 4541) (Staphylococcus sp.; [10]): >0.5 µg/mL
- MIC Staphylococcus aureus (GC 4542) (Staphylococcus sp.; [11]): >0.5 µg/mL
- MIC Staphylococcus aureus (GC 4544) (Staphylococcus sp.; [12]): >0.5 µg/mL
- MIC Staphylococcus aureus (GC 4545) (Staphylococcus sp.; [13]): >0.5 µg/mL
- MIC Staphylococcus aureus-SMITH (GC 4543) (Staphylococcus sp.): >0.5 µg/mL
- MIC Staphylococcus haemolyticus (GC 4546) (Staphylococcus sp.): 64 µg/mL
- MIC Staphylococcus aureus (ATCC 29213) (Staphylococcus sp.; broth dilution, strain ATCC 29213): >0.5 µg/mL
- MIC Staphylococcus aureus (GC 1131) (Staphylococcus sp.; broth dilution, strain GC 1131): >0.5 µg/mL
- MIC Staphylococcus aureus (GC 3051) (Staphylococcus sp.; broth dilution, strain GC 3051): 0.5 µg/mL
- MIC Staphylococcus aureus (GC 3053) (Staphylococcus sp.; broth dilution, strain GC 3053): 0.5 µg/mL
- MIC Staphylococcus aureus (GC 4541) (Staphylococcus sp.; broth dilution, strain GC 4541): >0.5 µg/mL
- MIC Staphylococcus aureus (GC 4542) (Staphylococcus sp.; broth dilution, strain GC 4542): >0.5 µg/mL
- MIC Staphylococcus aureus (GC 4544) (Staphylococcus sp.; broth dilution, strain GC 4544): >0.5 µg/mL
- MIC Staphylococcus aureus (GC 4545) (Staphylococcus sp.; broth dilution, strain GC 4545): >0.5 µg/mL
- MIC Streptococcus agalactiae (GC 4564) (Streptococcus sp.; [14]): 64 µg/mL
- MIC Streptococcus pneumoniae (GC 4565) (Streptococcus sp.; Streptococcus pneumoniae (GC 4565)): 32 µg/mL
- MIC Streptococcus pyogenes (GC 4563) (Streptococcus sp.; Streptococcus pyogenes (GC 4563)): 32 µg/mL
- MIC Streptococcus pyogenes (GC 4563) (Streptococcus sp.; broth dilution, strain GC 4563): 32 µg/mL
- MIC Streptococcus agalactiae (GC 4564) (Streptococcus sp.; broth dilution, strain GC 4564): 64 µg/mL
- MIC Streptococcus pneumoniae (GC 4565) (Streptococcus sp.; broth dilution, strain GC 4565): 32 µg/mL

Molecule: CC(C)CC(=O)OC1C(O)C(CO)OC(OC2C(CO)OC(Oc3ccc(CC4NC(=O)C(C(C)c5ccc(Cl)cc5)NC(=O)CNC(=O)C(CO)NC(=O)C(C(O)C5CNC(=N)N5C5OC(CO)C(O)C(O)C5O)NC(=O)C(C(O)C5CNC(=N)N5)NC4=O)cc3)C(O)C2O)C1O (stereo not shown) [Example 262b]
- MIC Escherichia coli (ATCC 25922) (Escherichia coli [1]): >64 µg/mL
- MIC Escherichia coli (GC 4559) (Escherichia coli [2]): >64 µg/mL
- MIC Escherichia coli (GC 4560) (Escherichia coli [2]): 1 µg/mL (≈ 0.707 µM)
- MIC Enterococcus avium (GC 4558) (Enterococcus sp.; Enterococcus avium (GC 4558)): 16 µg/mL (≈ 11.3 µM)
- MIC Enterococcus faecalis (ATCC 29212) (Enterococcus sp.; [3]): 32 µg/mL (≈ 22.6 µM)
- MIC Enterococcus faecalis (GC 2242) (Enterococcus sp.; [4]): 16 µg/mL (≈ 11.3 µM)
- MIC Enterococcus faecalis (GC 4552) (Enterococcus sp.; [5]): 32 µg/mL (≈ 22.6 µM)
- MIC Enterococcus faecalis (GC 4553) (Enterococcus sp.; [6]): 32 µg/mL (≈ 22.6 µM)
- MIC Enterococcus faecalis (GC 4554) (Enterococcus sp.; [7]): 32 µg/mL (≈ 22.6 µM)
- MIC Enterococcus faecium (GC 2243) (Enterococcus sp.; Enterococcus faecium (GC 2243)): 16 µg/mL (≈ 11.3 µM)
- MIC Enterococcus faecium (GC 4556) (Enterococcus sp.; Enterococcus faecium (GC 4556)): 16 µg/mL (≈ 11.3 µM)
- MIC Enterococcus faecium (GC 4557) (Enterococcus sp.; Enterococcus faecium (GC 4557)): 2 µg/mL (≈ 1.41 µM)
- MIC Coagulase Negative Staphylococcus (GC 4547) (Staphylococcus sp.): 2 µg/mL (≈ 1.41 µM)
- MIC Coagulase Negative Staphylococcus (GC 4547) (Staphylococcus sp.; broth dilution): 2 µg/mL (≈ 1.41 µM)
- MIC Coagulase Negative Staphylococcus (GC 4548) (Staphylococcus sp.): 1 µg/mL (≈ 0.707 µM)
- MIC Coagulase Negative Staphylococcus (GC 4548) (Staphylococcus sp.; broth dilution): 1 µg/mL (≈ 0.707 µM)
- MIC Coagulase Negative Staphylococcus (GC 4549) (Staphylococcus sp.): 1 µg/mL (≈ 0.707 µM)
- MIC Coagulase Negative Staphylococcus (GC 4549) (Staphylococcus sp.; broth dilution): 1 µg/mL (≈ 0.707 µM)
- MIC Coagulase Negative Staphylococcus (GC 4551) (Staphylococcus sp.): 2 µg/mL (≈ 1.41 µM)
- MIC Coagulase Negative Staphylococcus (GC 4551) (Staphylococcus sp.; broth dilution): 2 µg/mL (≈ 1.41 µM)
- MIC Staphylococcus aureus (ATCC 29213) (Staphylococcus sp.; [8]): 4 µg/mL (≈ 2.83 µM)
- MIC Staphylococcus aureus (ATCC 29213) (Staphylococcus sp.; Staphylococcus aureus (ATCC 29213), broth dilution): 4 µg/mL (≈ 2.83 µM)
- MIC Staphylococcus aureus (GC 1131) (Staphylococcus sp.; [9]): 4 µg/mL (≈ 2.83 µM)
- MIC Staphylococcus aureus (GC 1131) (Staphylococcus sp.; Staphylococcus aureus (GC 1131), broth dilution): 4 µg/mL (≈ 2.83 µM)
- MIC Staphylococcus aureus (GC 4541) (Staphylococcus sp.; [10]): 2 µg/mL (≈ 1.41 µM)
- MIC Staphylococcus aureus (GC 4541) (Staphylococcus sp.; Staphylococcus aureus (GC 4541), broth dilution): 2 µg/mL (≈ 1.41 µM)
- MIC Staphylococcus aureus (GC 4542) (Staphylococcus sp.; [11]): 2 µg/mL (≈ 1.41 µM)
- MIC Staphylococcus aureus (GC 4542) (Staphylococcus sp.; Staphylococcus aureus (GC 4542), broth dilution): 2 µg/mL (≈ 1.41 µM)
- MIC Staphylococcus aureus (GC 4544) (Staphylococcus sp.; [12]): 4 µg/mL (≈ 2.83 µM)
- MIC Staphylococcus aureus (GC 4544) (Staphylococcus sp.; Staphylococcus aureus (GC 4544), broth dilution): 4 µg/mL (≈ 2.83 µM)
- MIC Staphylococcus aureus (GC 4545) (Staphylococcus sp.; [13]): 2 µg/mL (≈ 1.41 µM)
- MIC Staphylococcus aureus (GC 4545) (Staphylococcus sp.; Staphylococcus aureus (GC 4545), broth dilution): 2 µg/mL (≈ 1.41 µM)
- MIC Staphylococcus aureus-SMITH (GC 4543) (Staphylococcus sp.): 1 µg/mL (≈ 0.707 µM)
- MIC Staphylococcus aureus-SMITH (GC 4543) (Staphylococcus sp.; broth dilution): 1 µg/mL (≈ 0.707 µM)
- MIC Staphylococcus haemolyticus (GC 4546) (Staphylococcus sp.): 2 µg/mL (≈ 1.41 µM)
- MIC Staphylococcus haemolyticus (GC 4546) (Staphylococcus sp.; broth dilution): 2 µg/mL (≈ 1.41 µM)
- MIC Streptococcus agalactiae (GC 4564) (Streptococcus sp.; [14]): 1 µg/mL (≈ 0.707 µM)
- MIC Streptococcus pyogenes (ID-3187) (Streptococcus sp.; Streptococcus pyogenes (ID-3187)): 1 µg/mL (≈ 0.707 µM)
